Measured values: paper PMC4235214 (mBio, 2014)
Like-named read-outs stand apart in the source and are kept apart here.

Columns and labels:
[1] = test system: EHEC; assay type: cell-based, enterohemorrhagic Escherichia coli (EHEC) O157:H7
[2] = test system: S. Typhimurium strain SL1344; set-up: species or system mice (BALB/c); conditions: mouse, in vivo
[3] = in vivo; conditions: female, CD-1, mouse
[4] = 5, 20, and 80 mg/kg daily for 14 days
[5] = test system: UPEC; assay type: cell-based, uropathogenic E. coli (UPEC); conditions: for reduction of biofilm formation: 24 h
[6] = target: hERG channel (Homo sapiens, UniProt Q12809); assay: in vitro
Chain of hERG channel (Q12809 whole entry): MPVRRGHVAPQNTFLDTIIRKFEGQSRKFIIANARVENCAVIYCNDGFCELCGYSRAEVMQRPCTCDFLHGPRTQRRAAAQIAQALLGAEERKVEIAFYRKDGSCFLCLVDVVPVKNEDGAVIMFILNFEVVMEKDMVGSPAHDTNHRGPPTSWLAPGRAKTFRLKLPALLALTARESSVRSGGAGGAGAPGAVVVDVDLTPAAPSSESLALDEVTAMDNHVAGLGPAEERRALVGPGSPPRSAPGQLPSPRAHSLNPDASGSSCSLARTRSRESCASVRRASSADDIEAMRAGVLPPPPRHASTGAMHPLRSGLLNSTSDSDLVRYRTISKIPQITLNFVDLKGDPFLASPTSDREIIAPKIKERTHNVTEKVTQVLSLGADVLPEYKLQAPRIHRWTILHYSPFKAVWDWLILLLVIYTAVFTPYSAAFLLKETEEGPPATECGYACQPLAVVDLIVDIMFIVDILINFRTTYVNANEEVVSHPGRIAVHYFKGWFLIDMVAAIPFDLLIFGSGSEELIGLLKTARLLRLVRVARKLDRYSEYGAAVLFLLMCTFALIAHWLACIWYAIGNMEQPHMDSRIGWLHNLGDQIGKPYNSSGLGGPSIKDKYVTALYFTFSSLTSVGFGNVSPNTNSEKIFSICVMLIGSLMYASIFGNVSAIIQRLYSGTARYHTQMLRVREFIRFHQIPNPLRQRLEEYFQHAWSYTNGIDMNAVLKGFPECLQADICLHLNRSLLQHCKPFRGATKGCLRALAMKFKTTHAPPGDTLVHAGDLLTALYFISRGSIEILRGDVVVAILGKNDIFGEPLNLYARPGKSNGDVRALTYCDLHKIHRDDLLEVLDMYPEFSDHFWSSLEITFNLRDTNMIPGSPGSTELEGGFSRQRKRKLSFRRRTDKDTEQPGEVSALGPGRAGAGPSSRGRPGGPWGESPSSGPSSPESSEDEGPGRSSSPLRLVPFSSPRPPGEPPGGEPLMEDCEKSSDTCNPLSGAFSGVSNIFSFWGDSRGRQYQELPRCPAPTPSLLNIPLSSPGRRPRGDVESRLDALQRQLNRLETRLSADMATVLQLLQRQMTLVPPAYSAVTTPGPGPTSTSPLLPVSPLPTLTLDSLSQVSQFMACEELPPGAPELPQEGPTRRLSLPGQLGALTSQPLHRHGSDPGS

[7] = test system: S. Typhimurium; assay type: cell-based, Salmonella enterica serovar Typhimurium; conditions: J774 macrophages, 5 nM
[8] = mouse, in vivo; cited from earlier work
[9] = test system: EAEC O104:H4; assay type: cell-based, enteroaggregative E. coli (EAEC)
[10] = test system: Pseudomonas and Klebsiella isolates; assay type: cell-based
[11] = test system: EAEC O104:H4; assay type: cell-based, enteroaggregative E. coli (EAEC); conditions: EAEC O104:H4, 5 nM, 24 h
[12] = test system: QseC; conditions: cited from earlier work

O=C(Nc1ccccc1)Nc1ccc(NS(=O)(=O)c2ccccc2)cc1 [CF252, N-(4-(3-Phenylureido)phenyl)benzenesulfonamide]
expression of ler and stx2a [1]: reversed the antagonist behavior

O=C(Nc1ccccc1)Nc1ccc(S(=O)(=O)NC2CCCCC2)cc1 [CF283, N-Cyclohexyl-4-(3-phenylureido)benzenesulfonamide]
expression of ler and stx2a [1]: significantly reduced

O=C(Nc1ccc(S(=O)(=O)Nc2ccccc2)cc1)Nc1nncs1 [CF290, 4-(3-(1,3,4-Thiadiazol-2-yl)ureido)-N-phenylbenzenesulfonamide]
increase of ler [1]: 2 fold

COc1ccccc1NC(=O)Nc1ccc(S(=O)(=O)Nc2ccccc2)cc1 [CF287, 4-(3-(2-Methoxyphenyl)ureido)-N-phenylbenzenesulfonamide]
expression of ler and stx2a [1]: lost the antagonist activity

O=S(=O)(Nc1ccccc1)c1ccc(NC(=S)Nc2ccccc2)cc1 [LED209, N-phenyl-4-(3-phenylthioureido)benzenesulfonamide]
mice remained alive [2]: 43%
mice remained alive ([2]; 20 mg/kg): 60%
mice survived ([2]; po, 20 mg/kg): 50%
half-life [3]: 0.667 to 1.67 h
liver toxicity [4]: no liver toxicity
toxicity [4]: did not present any toxicity
reduction in biofilm formation ([5]; UPEC clinical isolate 6): 43%
reduction in biofilm formation ([5]; UPEC clinical isolate 8): 48%
reduction in biofilm formation ([5]; UPEC clinical isolate 25): 43%
reduction of biofilm formation ([5]; UPEC strain CFT073, 5 nM, not significant): 8%
reduction of biofilm formation ([5]; UPEC strain UTI89, 5 nM): 35%
inhibition at 10 µM [6]: 4%
decrease of survival of S. Typhimurium within macrophages [7]: 4 logs
pharmacokinetics via the intravenous route [8]: linear
expression of key virulence genes (ler, tir, stx2a) [1]: phenocopied a qseC mutation
expression of ler and stx2a [1]: works as well as all of our previous LED209 batches
expression of the virulence genes (LEE: ler, tir) [1]: nonresponsive
expression of the virulence genes (ler) [1]: did not respond
expression of stx2a [9]: significantly reduced
reduction of biofilm formation ([10]; clinical isolate 18): 26%
reduction of biofilm formation ([10]; clinical isolate 20): 21%
reduction of biofilm formation [11]: 37%
QseC binding to its signals and autophosphorylation [12]: preventing binding to its signals and consequently its autophosphorylation
penetration of the blood-brain barrier (20 mg/kg): limited
peak concentrations in plasma (at each oral dose): high
exposures versus dose (oral doses above 80 mg/kg): increased less than proportionally
oral bioavailability (oral gavage, mice): good
pharmacokinetics by the oral route (oral gavage, mice): nonlinear
